Laboratory results as given in US20070004639A1, “Methods and compositions for treating Parkinson's disease” (BodyBio, Inc., priority 2005, published 2007).
Read-outs that look alike come from different tables or passages of the source.

How the values were obtained:
Parkinson's Disease [1] = assay: Parkinson's patients case studies (oral nutrients plus IV infusions)
Parkinson's Disease [2] = settings: 800 mild, early Parkinson's Disease patients; cited from earlier work
Parkinson's Disease [3] = settings: in vivo; cited from earlier work
Parkinson's Disease [4] = settings: cited from earlier work
Parkinson's Disease [5] = settings: after five years; cited from earlier work
[6] = test system: mouse model of Bulbar ALS; settings: oral administration; cited from earlier work
Parkinson's Disease [7] = settings: human, in vivo; cited from earlier work
[8] = cited from earlier work
Parkinson's Disease [9] = settings: in vivo; cited from earlier work; remark: listed apart in the source
[10] = in vivo; cited from earlier work

Molecule: N[C@@H](CCC(=O)N[C@@H](CS)C(=O)NCC(=O)O)C(=O)O [Glutathione, N—(N-L-gamma-glutamyl-L-cysteinyl)glycine]
- tremor (Parkinson's Disease [1]; Case Study 1, IV Glutathione push once weekly, after 6 months): slightly improved

Molecule: C#CCN(C)[C@H](C)Cc1ccccc1 [Selegiline]
- delay of the progression of motor symptoms (Parkinson's Disease [2]): about nine

Molecule: N[C@@H](Cc1ccc(O)c(O)c1)C(=O)O [levodopa, Levodopa]
- tolerance of drug by patient (Parkinson's Disease [1]; Case Study 6, before protocol): intolerant

Molecule: CCCN[C@H]1CCc2nc(N)sc2C1 [pramipexole]
- patients completely free from motor complications (Parkinson's Disease [3]): 72%
- patients in whom dyskinesias developed (Parkinson's Disease [3]): 10%
- patients who developed motor complications (Parkinson's Disease [3]): 28%

Molecule: CCCN(CCC)CCc1cccc2c1CC(=O)N2 [ropinerole]
- effectiveness in comparison (Parkinson's Disease [4]; early stage Parkinson's Disease, versus levodopa): as effective as levodopa
- effectiveness in comparison (Parkinson's Disease [4]; versus bromocriptine (Parlodel)): more effective than bromocriptine
- patients who developed dyskinesia (Parkinson's Disease [5]): 20%
- severe form among those who developed dyskinesia (Parkinson's Disease [5]): 8%

Molecule: CCCC(=O)[O-].[Na+] [sodium butyrate]
- neurological phenotypes [6]: successfully ameliorated

Molecule: Cc1ccc(C(=O)c2cc(O)c(O)c([N+](=O)[O-])c2)cc1 [tolcapone]
- deaths from liver failure (Parkinson's Disease [7]): three

Molecule: Phosphatidylcholine [PC]
- oral absorption ([8]; taken orally with meals): up to 90 % per 24 hrs
- time over which blood levels peak ([8]; taken orally): 8 to 12 h

Molecule: botulinum toxin
- effect on tremors (Parkinson's Disease [9]): without any substantial reduction in tremors

Molecule: carbidopa/levodopa
- half-life compared with dopamine agonists [10]: shorter half-life
